Target: full-length ATR (Homo sapiens (Human), UniProt Q13535)
Experiment: ATR Inhibition Assay (radioactive-phosphate incorporation)
Format: biochemical
Details: read-out: ATR Ki
Outline: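 Ki(app) was derived by non-linear regression of background-corrected initial rates of 33P incorporation into an 800 μM target peptide, read by phosphocellulose filter scintillation counting. Reaction conditions: 5 nM full-length ATR, 10 μM [γ-33P]ATP, pH 7.5 Tris buffer with MgCl2 and DTT, 25 °C, 10-min preincubation, 24 h run.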

Chain of full-length ATR (Q13535 whole entry): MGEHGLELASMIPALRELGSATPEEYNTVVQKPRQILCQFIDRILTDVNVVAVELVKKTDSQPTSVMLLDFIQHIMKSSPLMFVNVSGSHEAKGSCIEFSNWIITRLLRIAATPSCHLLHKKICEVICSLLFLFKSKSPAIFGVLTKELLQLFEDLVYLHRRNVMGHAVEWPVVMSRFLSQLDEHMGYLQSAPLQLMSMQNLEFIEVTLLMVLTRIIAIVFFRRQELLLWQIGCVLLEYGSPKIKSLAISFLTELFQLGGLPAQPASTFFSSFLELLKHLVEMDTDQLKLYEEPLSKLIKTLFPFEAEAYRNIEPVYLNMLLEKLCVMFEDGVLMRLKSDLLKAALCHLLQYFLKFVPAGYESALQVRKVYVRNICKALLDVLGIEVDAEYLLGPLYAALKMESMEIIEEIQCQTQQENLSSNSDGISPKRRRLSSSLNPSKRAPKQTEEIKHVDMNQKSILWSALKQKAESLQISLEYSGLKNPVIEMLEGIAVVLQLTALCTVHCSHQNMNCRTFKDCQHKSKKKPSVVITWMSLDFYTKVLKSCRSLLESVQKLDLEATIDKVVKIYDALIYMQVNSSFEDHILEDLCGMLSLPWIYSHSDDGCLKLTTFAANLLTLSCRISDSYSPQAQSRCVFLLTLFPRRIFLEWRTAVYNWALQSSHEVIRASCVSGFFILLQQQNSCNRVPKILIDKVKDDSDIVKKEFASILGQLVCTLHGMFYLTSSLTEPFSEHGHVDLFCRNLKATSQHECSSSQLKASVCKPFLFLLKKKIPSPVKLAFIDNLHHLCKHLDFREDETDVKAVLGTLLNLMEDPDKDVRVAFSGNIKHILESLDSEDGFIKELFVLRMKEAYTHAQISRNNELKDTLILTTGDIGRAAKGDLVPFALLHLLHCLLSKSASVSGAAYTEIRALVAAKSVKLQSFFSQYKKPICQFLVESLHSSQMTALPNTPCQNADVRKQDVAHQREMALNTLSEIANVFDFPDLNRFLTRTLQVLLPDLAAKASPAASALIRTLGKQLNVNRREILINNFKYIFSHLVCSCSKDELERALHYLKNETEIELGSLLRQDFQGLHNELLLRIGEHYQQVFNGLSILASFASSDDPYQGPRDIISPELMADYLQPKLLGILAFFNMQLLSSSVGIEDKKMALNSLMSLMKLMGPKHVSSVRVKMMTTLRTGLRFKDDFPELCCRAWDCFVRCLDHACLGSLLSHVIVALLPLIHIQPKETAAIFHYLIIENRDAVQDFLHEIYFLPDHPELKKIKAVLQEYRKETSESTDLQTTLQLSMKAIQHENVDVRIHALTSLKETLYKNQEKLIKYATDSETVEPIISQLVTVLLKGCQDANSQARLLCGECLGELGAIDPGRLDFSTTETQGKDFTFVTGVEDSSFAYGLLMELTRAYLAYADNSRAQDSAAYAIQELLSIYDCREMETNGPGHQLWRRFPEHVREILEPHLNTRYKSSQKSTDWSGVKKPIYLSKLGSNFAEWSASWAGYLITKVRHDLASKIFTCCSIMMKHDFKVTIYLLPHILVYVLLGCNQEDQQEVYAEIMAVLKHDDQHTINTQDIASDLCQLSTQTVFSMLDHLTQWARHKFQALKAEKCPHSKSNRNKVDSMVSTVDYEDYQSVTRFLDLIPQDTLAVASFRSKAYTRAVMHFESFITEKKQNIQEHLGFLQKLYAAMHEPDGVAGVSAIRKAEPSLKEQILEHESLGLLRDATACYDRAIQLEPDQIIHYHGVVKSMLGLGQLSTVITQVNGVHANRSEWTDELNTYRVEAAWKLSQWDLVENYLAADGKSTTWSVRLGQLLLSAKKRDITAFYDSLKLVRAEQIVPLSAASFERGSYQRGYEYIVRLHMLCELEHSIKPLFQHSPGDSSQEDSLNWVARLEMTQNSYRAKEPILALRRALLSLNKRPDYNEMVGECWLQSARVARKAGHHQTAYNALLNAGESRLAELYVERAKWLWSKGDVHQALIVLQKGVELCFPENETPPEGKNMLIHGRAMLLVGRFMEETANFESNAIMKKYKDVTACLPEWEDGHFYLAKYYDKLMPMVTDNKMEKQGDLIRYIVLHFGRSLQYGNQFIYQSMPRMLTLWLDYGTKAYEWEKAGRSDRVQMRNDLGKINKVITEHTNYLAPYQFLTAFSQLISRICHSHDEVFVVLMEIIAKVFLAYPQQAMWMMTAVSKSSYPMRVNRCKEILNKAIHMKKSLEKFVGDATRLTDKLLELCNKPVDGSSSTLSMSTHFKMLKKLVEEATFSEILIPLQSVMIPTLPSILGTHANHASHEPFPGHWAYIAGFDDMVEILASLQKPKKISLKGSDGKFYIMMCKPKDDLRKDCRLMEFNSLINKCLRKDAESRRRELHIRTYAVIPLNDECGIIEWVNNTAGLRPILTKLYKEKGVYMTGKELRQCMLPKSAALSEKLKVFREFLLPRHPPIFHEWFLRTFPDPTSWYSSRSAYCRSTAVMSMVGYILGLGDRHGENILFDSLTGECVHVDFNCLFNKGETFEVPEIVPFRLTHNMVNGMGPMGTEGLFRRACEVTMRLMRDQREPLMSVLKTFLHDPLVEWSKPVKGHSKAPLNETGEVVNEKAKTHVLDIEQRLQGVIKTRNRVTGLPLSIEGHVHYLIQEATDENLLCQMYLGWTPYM

Ki | SMILES
≤ 10 nM | CN(C)C(=O)c1ccc(-c2cnc(N)c(-c3nnc(-c4cccc(N)c4)o3)n2)cc1 [IA-142, 4-[5-amino-6-[5-(3-aminophenyl)-1,3,4-oxadiazol-2-yl]pyrazin-2-yl]-N,N-dimethyl-benzamide]
10 to 100 nM | CC(C)S(=O)(=O)c1ccc(-c2cnc(N)c(-c3nnc(-c4cc(C#N)cs4)o3)n2)cc1 [IA-143, 5-[5-[3-amino-6-(4-isopropylsulfonylphenyl)pyrazin-2-yl]-1,3,4-oxadiazol-2-yl]thiophene-3-carbonitrile]
10 to 100 nM | CS(=O)(=O)Nc1cccc(-c2cnc(N)c(-c3nnc(-c4ccccc4)o3)n2)c1 [IA-144, N-[3-[5-amino-6-(5-phenyl-1,3,4-oxadiazol-2-yl)pyrazin-2-yl]phenyl]methanesulfonamide]
≤ 10 nM | CC(C)S(=O)(=O)c1ccc(-c2cnc(N)c(-c3nnc(-c4ccc5c(c4)CCNC5)o3)n2)cc1 [IA-145, 5-(4-isopropylsulfonylphenyl)-3-[5-(1,2,3,4-tetrahydroisoquinolin-6-yl)-1,3,4-oxadiazol-2-yl]pyrazin-2-amine]
≤ 10 nM | CNCc1cccc(-c2nnc(-c3nc(-c4ccc(S(=O)(=O)C(C)C)cc4)cnc3N)o2)c1 [IA-146, 5-(4-isopropylsulfonylphenyl)-3-[5-[3-(methylaminomethyl)phenyl]-1,3,4-oxadiazol-2-yl]pyrazin-2-amine]
≤ 10 nM | CC(C)S(=O)(=O)c1ccc(-c2cnc(N)c(-c3nnc(-c4ccc(C5CCCN5)s4)o3)n2)cc1 (stereo not shown) [IA-147, 5-(4-isopropylsulfonylphenyl)-3-[5-(5-pyrrolidin-2-yl-2-thienyl)-1,3,4-oxadiazol-2-yl]pyrazin-2-amine]
≤ 10 nM | CCS(=O)(=O)c1ccc(-c2cnc(N)c(-c3nnc(-c4ccccc4)o3)n2)cc1 [IA-149, 5-(4-ethylsulfonylphenyl)-3-(5-phenyl-1,3,4-oxadiazol-2-yl)pyrazin-2-amine]
≤ 10 nM | N#Cc1cc(C(=O)N2CCCNCC2)ccc1-c1cnc(N)c(-c2nnc(-c3cccs3)o2)n1 [IA-152, 2-(5-amino-6-(5-(thiophen-2-yl)-1,3,4-oxadiazol-2-yl)pyrazin-2-yl)-5-(1,4-diazepane-1-carbonyl)benzonitrile]
10 to 100 nM | CCc1ccccc1-c1nnc(-c2nc(-c3ccc(C(=O)N(C)C)cc3)cnc2N)o1 [IA-155, 4-(5-amino-6-(5-(2-ethylphenyl)-1,3,4-oxadiazol-2-yl)pyrazin-2-yl)-N,N-dimethylbenzamide]
10 to 100 nM | COc1ccc(-c2nnc(-c3nc(-c4ccc(C(=O)N(C)C)cc4)cnc3N)o2)cc1 [IA-157, 4-[5-amino-6-[5-(4-methoxyphenyl)-1,3,4-oxadiazol-2-yl]pyrazin-2-yl]-N,N-dimethyl-benzamide]
≤ 10 nM | CC(C)S(=O)(=O)c1ccc(-c2cnc(N)c(-c3nnc(-c4ccc(CNC5CC5)cc4)o3)n2)cc1 [IA-158, 3-[5-[4-[(cyclopropylamino)methyl]phenyl]-1,3,4-oxadiazol-2-yl]-5-(4-isopropylsulfonylphenyl)pyrazin-2-amine]
100 to 5000 nM | CC(C)S(=O)(=O)c1ccc(-c2cnc(N)c(-c3nnc(NC(=O)[C@H]4N[C@H]5CC[C@@H]4C5)o3)n2)cc1 [IA-160, (1R,4S,6S)—N-[5-[3-amino-6-(4-isopropylsulfonylphenyl)pyrazin-2-yl]-1,3,4-oxadiazol-2-yl]-5-azabicyclo[2.2.1]heptane-6-carboxamide]
≤ 10 nM | CNCc1ccc(-c2nnc(-c3nc(-c4ccc(S(=O)(=O)C(C)C)cc4)cnc3N)o2)c(C)c1 [IA-166, 5-(4-isopropylsulfonylphenyl)-3-[5-[2-methyl-4-(methylaminomethyl)phenyl]-1,3,4-oxadiazol-2-yl]pyrazin-2-amine]
≤ 10 nM | Cc1ccsc1-c1nnc(-c2nc(-c3ccc(C(=O)N(C)C)cc3)cnc2N)o1 [IA-167, 4-[5-amino-6-[5-(3-methyl-2-thienyl)-1,3,4-oxadiazol-2-yl]pyrazin-2-yl]-N,N-dimethyl-benzamide]
100 to 5000 nM | CC(C)S(=O)(=O)c1ccc(-c2cnc(N)c(-c3nnc(CN)o3)n2)cc1 [IA-168, 3-[5-(aminomethyl)-1,3,4-oxadiazol-2-yl]-5-(4-isopropylsulfonylphenyl)pyrazin-2-amine]
≤ 10 nM | CN(C)CCS(=O)(=O)c1ccc(-c2cnc(N)c(-c3nnc(-c4ccccc4)o3)n2)cc1 [IA-169, 5-[4-(2-dimethylaminoethylsulfonyl)phenyl]-3-(5-phenyl-1,3,4-oxadiazol-2-yl)pyrazin-2-amine]
≤ 10 nM | CNCc1ccc(-c2nnc(-c3nc(-c4ccc(S(=O)(=O)C(C)C)cc4)cnc3N)o2)c(OC)c1 [IA-171, 5-(4-isopropylsulfonylphenyl)-3-[5-[2-methoxy-4-(methylaminomethyl)phenyl]-1,3,4-oxadiazol-2-yl]pyrazin-2-amine]
≤ 10 nM | CC(C)S(=O)(=O)c1ccc(-c2cnc(N)c(-c3nnc(-c4ccc(CN)s4)o3)n2)cc1 [IA-173, 3-[5-[5-(aminomethyl)-2-thienyl]-1,3,4-oxadiazol-2-yl]-5-(4-isopropylsulfonylphenyl)pyrazin-2-amine]
10 to 100 nM | CC(=O)Nc1nnc(-c2nc(-c3ccc(S(=O)(=O)C(C)C)cc3)cnc2N)o1 [IA-177, N-[5-[3-amino-6-(4-isopropylsulfonylphenyl)pyrazin-2-yl]-1,3,4-oxadiazol-2-yl]acetamide]
≤ 10 nM | CC(C)S(=O)(=O)c1ccc(-c2cnc(N)c(-c3nnc(-c4ccc(CNCCO)cc4)o3)n2)cc1 [IA-178, 2-(4-(5-(3-amino-6-(4-(isopropylsulfonyl)phenyl)pyrazin-2-yl)-1,3,4-oxadiazol-2-yl)benzylamino)ethanol]
10 to 100 nM | CN(C)C(=O)c1ccc(-c2cnc(N)c(-c3nnc(-c4cscn4)o3)n2)cc1 [IA-180, 4-[5-amino-6-(5-thiazol-4-yl-1,3,4-oxadiazol-2-yl)pyrazin-2-yl]-N,N-dimethyl-benzamide]

The remaining lines, values behind:

SMILES | Ki
CN(C)C(=O)c1ccc(-c2cnc(N)c(-c3nnc(-c4ccccc4)o3)n2)c(C=CF)c1 [IA-148, 4-[5-amino-6-(5-phenyl-1,3,4-oxadiazol-2-yl)pyrazin-2-yl]-3-(2-fluorovinyl)-N,N-dimethyl-benzamide] | 100 to 5000 nM
Nc1ncc(-c2cccc(OC(F)(F)F)c2)nc1-c1nnc(-c2ccccc2)o1 [IA-150, 3-(5-phenyl-1,3,4-oxadiazol-2-yl)-5-[3-(trifluoromethoxy)phenyl]pyrazin-2-amine] | 100 to 5000 nM
CN(C)C(=O)c1ccc(-c2cnc(N)c(-c3nnc(Nc4ccccc4Cl)o3)n2)cc1 [IA-151, 4-[5-amino-6-[5-(2-chloroanilino)-1,3,4-oxadiazol-2-yl]pyrazin-2-yl]-N,N-dimethyl-benzamide] | 10 to 100 nM
N#Cc1ccncc1-c1cnc(N)c(-c2nnc(-c3ccccc3)o2)n1 [IA-153, 3-(5-amino-6-(5-phenyl-1,3,4-oxadiazol-2-yl)pyrazin-2-yl)pyridine-4-carbonitrile] | 10 to 100 nM
CN(C)C(=O)c1ccc(-c2cnc(N)c(-c3nnc(NCCc4ccccc4)o3)n2)cc1 [IA-156, 4-[5-amino-6-[5-(phenethylamino)-1,3,4-oxadiazol-2-yl]pyrazin-2-yl]-N,N-dimethyl-benzamide] | 100 to 5000 nM
CN(C)C(=O)c1ccc(-c2cnc(N)c(-c3nnc(-c4ccccc4)o3)n2)c(-c2cnco2)c1 [IA-161, 4-[5-amino-6-(5-phenyl-1,3,4-oxadiazol-2-yl)pyrazin-2-yl]-N,N-dimethyl-3-oxazol-5-yl-benzamide] | 10 to 100 nM
CN(C)C(=O)c1ccc(-c2cnc(N)c(-c3nnc(-c4ccc(CNC(=O)OC(C)(C)C)cc4)o3)n2)cc1 [IA-162, tert-butyl N-[[4-[5-[3-amino-6-[4-(dimethylcarbamoyl)phenyl]pyrazin-2-yl]-1,3,4-oxadiazol-2-yl]phenyl]methyl]carbamate] | 10 to 100 nM
CN(C)C(=O)c1ccc(-c2cnc(N)c(-c3nnc(NC4CCCCC4)o3)n2)cc1 [IA-163, 4-[5-amino-6-[5-(cyclohexylamino)-1,3,4-oxadiazol-2-yl]pyrazin-2-yl]-N,N-dimethyl-benzamide] | 100 to 5000 nM
CC(C)(C)OC(=O)NCC[S+]([O-])c1ccccc1-c1cnc(N)c(-c2nnc(-c3ccccc3)o2)n1 (stereo not shown) [IA-164, tert-butyl N-[2-[2-[5-amino-6-(5-phenyl-1,3,4-oxadiazol-2-yl)pyrazin-2-yl]phenyl]sulfinylethyl]carbamate] | 100 to 5000 nM
CN(C)CCOc1cc(-c2cnc(N)c(-c3nnc(-c4ccccc4)o3)n2)ccn1 [IA-165, 5-[2-(2-dimethylaminoethyloxy)-4-pyridyl]-3-(5-phenyl-1,3,4-oxadiazol-2-yl)pyrazin-2-amine] | 10 to 100 nM
Nc1ncc(-c2ccoc2)nc1-c1nnc(-c2ccccc2)o1 [IA-170, 5-(3-furyl)-3-(5-phenyl-1,3,4-oxadiazol-2-yl)pyrazin-2-amine] | 10 to 100 nM
Nc1ncc(-c2ccccc2C(F)(F)F)nc1-c1nnc(-c2ccccc2)o1 [IA-174, 3-(5-phenyl-1,3,4-oxadiazol-2-yl)-5-[2(-trifluoromethyl)phenyl]pyrazin-2-amine] | 100 to 5000 nM
CN(C)C(=O)c1ccc(-c2cnc(N)c(-c3nnc(-c4ccccc4OCCNC(=O)OC(C)(C)C)o3)n2)cc1 [IA-175, tert-butyl N-[2-[2-[5-[3-amino-6-[4-(dimethylcarbamoyl)phenyl]pyrazin-2-yl]-1,3,4-oxadiazol-2-yl]phenoxy]ethyl]carbamate] | ≤ 10 nM
Nc1ncc(-c2ccccc2Br)nc1-c1nnc(-c2ccccc2)o1 [IA-176, 5-(2-bromophenyl)-3-(5-phenyl-1,3,4-oxadiazol-2-yl)pyrazin-2-amine] | 100 to 5000 nM
Cc1ccsc1-c1nnc(-c2nc(-c3ccccc3[S+](C)[O-])cnc2N)o1 (stereo not shown) [IA-179, 5-(2-methylsulfinylphenyl)-3-[5-(3-methyl-2-thienyl)-1,3,4-oxadiazol-2-yl]pyrazin-2-amine] | ≤ 10 nM
Cc1ccsc1-c1nnc(-c2nc(-c3ccc(C(=O)N4CCCNCC4)cc3C#N)cnc2N)o1 [IA-181, 2-(5-amino-6-(5-(3-methylthiophen-2-yl)-1,3,4-oxadiazol-2-yl)pyrazin-2-yl)-5-(1,4-diazepane-1-carbonyl)benzonitrile] | ≤ 10 nM
